# Test results: article PMC12866179, “Oxidized MIF is an Alzheimer’s disease drug target relaying external risk factors to tau pathology” (Cell Reports Medicine, 2025)
# How the values were obtained:
# GSK3β = GSK3β phosphorylation (Ser9) in SH-SY5Y-tau-P301S cells, immunoblot; type: cell-based, human; conditions: dose-dependent and MIF-dependent
# Experimental: After the protein concentration of cell lysates and homogenates had been determined using the DC Protein Assay Kit (Bio-Rad), 20 μg of each sample were dissolved in NuPAGE LDS Sample buffer (including 2% β-mercaptoethanol), boiled at 100°C for 5 min and then separated on NuPAGE Novex 4–12% Bis-Tris midi gels (Invitrogen) using NuPAGE MES SDS Running buffer (Invitrogen). Proteins were then transferred to a 0.2 μm nitrocellulose membrane (Amersham) in 24 mM Tris/192 mM glycine/20% MeOH at 400 mA for 2h using a tank blot system (Bio-Rad). In order to detect any blotting artifacts, the proteins on the membranes were visualized with Ponceau S (Sigma). The membranes were destained with PBS and then blocked with PBS/5% nonfat milk (Oxoid) for 1h at RT. Incubations with primary antibodies (diluted 1:1,000) in PBS-T were carried out overnight at 4°C. Then the membranes were washed three times with PBS-T for 10 min and afterward incubated with fluorescent secondary antibodies (IR Dye 680 or 800: Li-COR Biosciences.) diluted 1:20,000 in PBS-T for 1h at RT. Following three washing steps with PBS-T for 10 min each, the membranes were scanned using an LI-COR Odyssey CLX. Signal intensities were calculated using the Image Studio Version 2.1 software (LI-COR Biosciences). Blots were reused for staining with additional primary antibodies following the same procedure.
# HSV-1 = assay: Plaque assay of HSV-1-infected SH-SY5Y-tau-P301S control and MIF-knockdown cells; type: cell-based, HSV-1 KOS strain
# Experimental: Virus titer determination was carried out in 25-cm^2 flasks or 6-well plates with confluent Vero cells. The virus stock was serially diluted in Medium 199. 1 mL of each of the dilutions was added to the Vero cells in duplicates and incubated for 2h. Then the inoculum was aspirated and DMEM supplemented with 5% NBCS and 7.5 μg/mL human immunoglobulin (Sigma) was added. After two days the cells were washed twice with PBS and fixed with MeOH for 5 min at RT. Then 1:10 diluted KaryoMax Giemsa stain solution (Gibco) was added to the cells and incubated for 20 min at RT. Following washing with water the plaques were counted under the microscope and the titer was calculated.
# 4x10^5 Vero cells, 8x10^5 SH-SY5Y or 2x10^6 differentiated LUHMES (differentiation day 6) cells were seeded into 12-well plates. After 24h the cells were treated with compounds (as indicated in the figures) and after 1h they were infected with HSV-1 applying MOIs as described in the figures. After 20h (or at indicated time points) cells were either washed twice with PBS, then lysed in cold PBS/1% NP40 including the cOmplete EDTA-free protease inhibitor cocktail (Roche) and phosphatase inhibitor cocktail (Sigma) or virus was released by freeze-thawing and ultrasonic treatment for analysis in viral plaque assay (see above).
# […] Two-wa y ANOVA (Sidak´s post-hoc) […]
# oxMIF = molecular target: T1, oxMIF (Homo sapiens, UniProt P14174); assay: 15N-HSQC NMR binding to H2O2-treated wild-type MIF (oxMIF)
# T1 construct: made in house; host or cells: E. coli BL21-(DE3)-Rosetta-pLysS, pET11a-MIF, then H2O2 treatment
# T1 sequence (P14174 2-115 limits assumed): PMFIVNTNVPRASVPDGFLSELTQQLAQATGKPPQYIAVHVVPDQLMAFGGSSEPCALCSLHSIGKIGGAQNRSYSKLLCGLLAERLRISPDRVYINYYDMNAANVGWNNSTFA
# Experimental: The NMR F1-[^13C,^15N]-filtered-[^1H,^1H]-NOESY spectra for structure calculation were recorded on a 700 MHz Bruker Avance Neo spectrometer equipped with cryoprobe, and the ^15N-HSQC were recorded on a 600 MHz Bruker Avance III spectrometer equipped with cryoprobe. The filtered NOESY were recorded for MIF 1.0 mM and saturation of PAV-174, i.e., 1.0 mM of PAV-174. at 310K to reduce the rotational correlation time of the system, with two different mixing times 60 and 100ms; the free induction decay was measured for 106ms (2048 points) and the indirect dimension was set to 20ms (400 points); the signal acquisition was performed with 160 scans and the interscan delay was set to 1.5s. The ^15N-HSQC were measured at 298K with 121ms (2048 points) in the direct dimension and 53 ms (256 points) in the indirect dimension; the signal acquisition was performed through the accumulation of 16 scans and an interscan delay of 1s was applied. The cross-peaks corresponding to ligand-proteins were used to derive ligand-protein distant restraints using the initial rates of the normalized NOE intensity build-up curves.[91] […] The intermolecular distance restraints were kept semiambiguous, i.e., only the ligand signals were assigned, and the MIF- PAV-174 complex was calculated with the NMR^2 software[92] using the CYANA software for tortion angle dynamics structure calculation.
smiles,measurement,setting,value
"CCc1cc(N2CCCC2)cc2[s+]c3cc(N4CCCC4)cc(C)c3nc12.[I-] [PAV-174, 3,7-Di(pyrrolidine-1-yl) 1-ethyl-9-methyl-phenothiazin-5-ium iodide]",phosphorylation of GSK3β at Ser9,GSK3β,increased
same,HSV-1 titer-lowering effect in MIF-knockdown cells,HSV-1,did not exert comparable titer-lowering effects
same,binding to redMIF and oxMIF (chemical shift perturbations),oxMIF,bound to both MIF species
